The IC50 is the concentration that inhibits the measured activity by half. A lower IC50 goes with inhibition by little substance.

Results on eight molecules are retold here after ChEMBL document CHEMBL1137247, “Derivatives of 7-amino-1,2,3,4-tetrahydroisoquinoline and isophthalic acids as novel fibrinogen receptor antagonists” (Bioorg Med Chem Lett, 2006).

The first assay relates to Plasma. Kind of assay: Inhibition of ADP-induced platelet aggregation in human platelet-rich plasma by Born's method.
As for `O=C(O)CC(NC(=O)c1cc(C(=O)Nc2ccc3c(c2)CNCC3)cc([N+](=O)[O-])c1)c1ccccc1` (stereo unspecified), half-maximal inhibition (IC50) was put at 710 nM.
Turning to `O=C(O)CCNC(=O)c1cc(C(=O)Nc2ccc3c(c2)CNCC3)cc([N+](=O)[O-])c1`, half-maximal inhibition (IC50) was put at 2300 nM.
Same read-out and setting: the value for `COc1ccc(C(CC(=O)O)NC(=O)c2cccc(C(=O)Nc3ccc4c(c3)CNCC4)c2)cc1` (stereo unspecified) was 17 nM; that for `COc1ccc(C(CC(=O)O)NC(=O)c2cc(C(=O)Nc3ccc4c(c3)CNCC4)cc([N+](=O)[O-])c2)cc1` (stereo unspecified) was 450 nM.
On the same count and under the same terms, the value for `O=C(O)CCNC(=O)c1cccc(C(=O)Nc2ccc3c(c2)CNCC3)c1` was 78 nM; that for `O=C(O)CC(NC(=O)c1cccc(C(=O)Nc2ccc3c(c2)CNCC3)c1)c1ccccc1` (stereo unspecified) was 25 nM.
On the same count and under the same terms, next, `COc1ccc(C(CC(=O)O)NC(=O)c2cccc(C(=O)Nc3ccc4c(c3)CNCC4)c2)cc1OC` (stereo unspecified): 11.6 nM; `COc1ccc(C(CC(=O)O)NC(=O)c2cc(C(=O)Nc3ccc4c(c3)CNCC4)cc([N+](=O)[O-])c2)cc1OC` (stereo unspecified): 340 nM.

The next assay deals with Integrin alpha-IIb/beta-3 (Homo sapiens). Kind of assay: Displacement of FITC-Fg from integrin alphaIIbbeta3 receptor expressed in human activated platelets.
As to `O=C(O)CC(NC(=O)c1cc(C(=O)Nc2ccc3c(c2)CNCC3)cc([N+](=O)[O-])c1)c1ccccc1` (stereo unspecified), the IC50 was 8 nM.
On to `O=C(O)CCNC(=O)c1cc(C(=O)Nc2ccc3c(c2)CNCC3)cc([N+](=O)[O-])c1`, for which the IC50 amounted to 32 nM.
The same measure, in the same setting: next, `COc1ccc(C(CC(=O)O)NC(=O)c2cccc(C(=O)Nc3ccc4c(c3)CNCC4)c2)cc1` (stereo unspecified): 0.8 nM; `COc1ccc(C(CC(=O)O)NC(=O)c2cc(C(=O)Nc3ccc4c(c3)CNCC4)cc([N+](=O)[O-])c2)cc1` (stereo unspecified): 5 nM.
Same read-out and setting: the value for `O=C(O)CCNC(=O)c1cccc(C(=O)Nc2ccc3c(c2)CNCC3)c1` was 9 nM; that for `O=C(O)CC(NC(=O)c1cccc(C(=O)Nc2ccc3c(c2)CNCC3)c1)c1ccccc1` (stereo unspecified) was 1 nM; that for `COc1ccc(C(CC(=O)O)NC(=O)c2cccc(C(=O)Nc3ccc4c(c3)CNCC4)c2)cc1OC` (stereo unspecified) was 0.7 nM.
`COc1ccc(C(CC(=O)O)NC(=O)c2cc(C(=O)Nc3ccc4c(c3)CNCC4)cc([N+](=O)[O-])c2)cc1OC` (stereo unspecified): the IC50 was found to be 3.7 nM.
